# In publication PMC5889410, “Design and Biological Evaluation of Antifouling Dihydrostilbene Oxime Hybrids” (Marine Biotechnology (New York, N.y.), 2018):
# Key:
# [1] = system: marine bacteria; assay: Bacterial adhesion assay, whole panel of ten strains; assay type: cell-based, 10 marine bacterial strains; details: tested up to 10 μg/mL, active = MIC of 10 μg/mL or below
# Text: (§1) Cyprid larvae of B. improvisus were reared in a laboratory cultivating system at Tjärnö Marine Biological Laboratory, University of Gothenburg, Sweden, as previously described by Berntsson et al. ([2000]). Four pure, but non-axenic, marine microalgae (obtained from Algobank, Caen, France) and 10 marine bacterial strains were used (Table 1) as representative microfoulers. These strains represent fouling species encountered in both estuarine and marine environments (Moodie et al. [2017b]). The bacteria were grown at 26 °C in a marine medium, composed of 0.5% peptone (neutralized bacteriological peptone, Oxoid Ltd.) in filtered (Whatman 1001–270, pore size 11 μm) natural seawater. Microalgae were grown and maintained at 22 °C in F/2 medium.
# (§2) Bacterial strain adhesion and growth were determined according to the methods of Thabard et al. ([2011]). Bacterial suspensions (100-μL aliquots, 2 × 10^8 colony forming units/mL) were aseptically added to the compound containing microplate wells (10–0.01 μg/mL), and the plates were incubated for 48 h at 26 °C. Media only was used as a blank. Bacterial growth was monitored spectroscopically at 630 nm. The minimal inhibitory concentration (MIC) for bacterial growth was defined as the lowest concentration which results in a decrease in OD. After 48-h incubation time, the bacterial adhesion assay was conducted by emptying the wells and rinsing with sterile seawater (100 μL) to remove non-attached cells, and air-drying at room temperature. The residual bacterial biofilm was stained with aqueous crystal violet (100 μL, 0.3% v/v) and the OD measured at 595 nm (Sonak and Bhosle [1995]). […] If inhibition was observed, toxicity tests were conducted. The well contents were transferred into a flask of fresh media, and growth was measured after 5 days of additional incubation. The mode of action was deemed biostatic if an increase in OD was measured at 595 nm (Moodie et al. [2017a]).
# [2] = system: Balanus improvisus cyprid larvae; assay: whole plant or invertebrate; assay type: in vivo; details: for IC50: Amphibalanus improvisus, 120 h, read-out: IC50 (cyprid settlement inhibition); for Toxicity (%) (dead cyprids): Balanus improvisus, in vivo, 5 days, 5 μg/mL
# Text: as §1
# Stock solutions of compounds in DMSO were serially diluted in untreated polystyrene Petri dishes containing 10 mL of filtered (0.2 μm) seawater, affording final concentrations ranging from 0.1 to 10 μg/mL. Freshly molted balanide cyprids (18–22) were added to each Petri dish and incubated at ambient temperature (20–25 °C) for 5 days. Cyprid metamorphosis was assessed using a dissecting microscope where the numbers of juvenile settled, free-swimming, and dead cyprids were noted. Initial compound screening was conducted at 5 μg/mL, and full IC50 determination was performed only on compounds displaying > 50% inhibition at that concentration. The IC50 was defined as the concentration preventing 50% of the cyprid settlement on the Petri dish surface. Each concentration was replicated four times (n = 4), and dishes containing 0.1% of DMSO were used as negative controls. The commercial AF agent Sea-nine™ was employed as a positive control.
# [3] = system: Pleurochrysis roscoffensis; assay: Microalgal adhesion assay (chlorophyll a); assay type: cell-based; details: Chrysotila roscoffensis, 120 h, 5 days incubation, 10–0.01 μg/mL tested, read-out: MIC against the adhesion (A) of microalgae, P. roscoffensis
# Text: as §1
# (§3) Microplates containing the compounds in ranging concentrations (10–0.01 μg/mL) were prepared from MeOH stock solutions as previously described (Trepos et al. [2014]; Moodie et al. [2017a]). Microalgal stock solutions were prepared using the chlorophyll analysis methodology of Chambers et al. ([2011]). The pretreated microplate wells were treated with 100 μL of the algal stock solutions (0.1 mg chlorophyll a/mL). The plates were then incubated for 5 days at 20 °C under constant light exposure (140 μmol m^−2 s^−1). Both microalgal adhesion and growth inhibition were measured. Growth was determined by analysis of liberated chlorophyll a after centrifugation and methanol addition. Chlorophyll a was quantified fluorometrically. MIC value for algal growth was defined as the lowest concentration yielding a decrease in chlorophyll a content. Microalgal adhesion was determined in an analogous manner where the non-attached algal cells were removed prior to methanol addition (100 μL), releasing chlorophyll a from the remaining algal biofilms. The MIC for adhesion was defined as the lowest compound concentration causing a reduction in […]. Toxicity experiments were performed in an analogous manner to those described for the bacterial assays.
# [4] = system: Halamphora coffeaeformis; assay: Microalgal growth assay (chlorophyll a); assay type: cell-based; details: Halamphora coffeiformis, 120 h, 5 days incubation, 10–0.01 μg/mL tested, read-out: MIC against the growth (G) of microalgae, H. coffeaformis
# Text: as §1, §3
# [5] = system: Cylindrotheca closterium; assay: Microalgal growth assay (chlorophyll a); assay type: cell-based; details: 120 h, 5 days incubation, 10–0.01 μg/mL tested, read-out: MIC against the growth (G) of microalgae, C. closterium
# Text: as §1, §3
# [6] = system: Porphyridium purpureum; assay: Microalgal growth assay (chlorophyll a); assay type: cell-based; details: 120 h, 5 days incubation, 10–0.01 μg/mL tested, read-out: MIC against the growth (G) of microalgae, P. purpureum
# Text: as §1, §3
# [7] = system: Pleurochrysis roscoffensis; assay: Microalgal growth assay (chlorophyll a); assay type: cell-based; details: Chrysotila roscoffensis, 120 h, 5 days incubation, 10–0.01 μg/mL tested, read-out: MIC against the growth (G) of microalgae, P. roscoffensis
# Text: as §1, §3
# [8] = system: Shewanella putrefaciens; assay: Bacterial growth assay (OD 630 nm); assay type: cell-based; details: 48 h incubation, 10–0.01 μg/mL tested, read-out: MIC against the growth of marine bacteria, S.p.
# Text: as §1, §2
# [9] = system: Vibrio carchariae; assay: Bacterial growth assay (OD 630 nm); assay type: cell-based; details: Vibrio harveyi, 48 h incubation, 10–0.01 μg/mL tested, read-out: MIC against the growth of marine bacteria, V.c.
# Text: as §1, §2
# [10] = system: Vibrio harveyi; assay: Bacterial growth assay (OD 630 nm); assay type: cell-based; details: 48 h incubation, 10–0.01 μg/mL tested, read-out: MIC against the growth of marine bacteria, V.h.
# Text: as §1, §2
# [11] = system: Vibrio aestuarianus; assay: Bacterial growth assay (OD 630 nm); assay type: cell-based; details: 48 h incubation, 10–0.01 μg/mL tested, read-out: MIC against the growth of marine bacteria, V.a.
# Text: as §1, §2
# [12] = system: Vibrio natriegens; assay: Bacterial growth assay (OD 630 nm); assay type: cell-based; details: 48 h incubation, 10–0.01 μg/mL tested, read-out: MIC against the growth of marine bacteria, V.n.
# Text: as §1, §2
# [13] = system: Vibrio proteolyticus; assay: Bacterial growth assay (OD 630 nm); assay type: cell-based; details: 48 h incubation, 10–0.01 μg/mL tested, read-out: MIC against the growth of marine bacteria, V.p.
# Text: as §1, §2
# [14] = system: Roseobacter litoralis; assay: Bacterial growth assay (OD 630 nm); assay type: cell-based; details: 48 h incubation, 10–0.01 μg/mL tested, read-out: MIC against the growth of marine bacteria, R.l.
# Text: as §1, §2
# [15] = system: Pseudoalteromonas elyakovii; assay: Bacterial growth assay (OD 630 nm); assay type: cell-based; details: 48 h incubation, 10–0.01 μg/mL tested, read-out: MIC against the growth of marine bacteria, P.e.
# Text: as §1, §2
# [16] = system: Halomonas aquamarina; assay: Bacterial growth assay (OD 630 nm); assay type: cell-based; details: Vreelandella aquamarina, 48 h incubation, 10–0.01 μg/mL tested, read-out: MIC against the growth of marine bacteria, H.a.
# Text: as §1, §2
# [17] = system: marine bacteria; assay: Bacterial growth assay, whole panel of ten strains; assay type: cell-based, 10 marine bacterial strains; details: tested up to 10 μg/mL
# Text: as §1, §2
# [18] = system: Balanus improvisus cyprid larvae; details: B. improvisus larvae settlement; ref Ortlepp et al. [2007]; cited from earlier work
# [19] = system: Halamphora coffeaeformis; assay: Microalgal adhesion assay (chlorophyll a); assay type: cell-based; details: Halamphora coffeiformis, 120 h, 5 days incubation, 10–0.01 μg/mL tested, read-out: MIC against the adhesion (A) of microalgae, H. coffeaformis
# Text: as §1, §3
# [20] = system: Porphyridium purpureum; assay: Microalgal adhesion assay (chlorophyll a); assay type: cell-based; details: 120 h, 5 days incubation, 10–0.01 μg/mL tested, read-out: MIC against the adhesion (A) of microalgae, P. purpureum
# Text: as §1, §3
# [21] = system: microalgae; assay: Microalgal adhesion and growth, whole panel of four species; assay type: cell-based, four marine microalgae; details: 10–0.01 μg/mL tested
# Text: as §1, §3
structure (smiles),measurement,setting,value
"COc1ccc(CC(=NO)c2ccc(OC)c(OC)c2)cc1 [Compound 9, 1-(3,4-dimethoxyphenyl)-1-hydroxyimino-2-(4’-methoxyphenyl)-ethane]",MIC / activity against the adhesion of all bacteria tested,[1],displayed inhibitory activities
same,IC50,[2],1.5 µg/mL
same,Toxicity (%) (dead cyprids),[2],0.0%
same,MIC,[3],10 µg/mL
same,MIC,[4],10 µg/mL
same,MIC,[5],10 µg/mL
same,MIC,[6],> 10 µg/mL
same,MIC,[7],> 10 µg/mL
same,MIC,[8],0.1 µg/mL
same,MIC,[9],> 10 µg/mL
same,MIC,[10],> 10 µg/mL
same,MIC,[11],> 10 µg/mL
same,MIC,[12],> 10 µg/mL
same,MIC,[13],> 10 µg/mL
same,MIC,[14],> 10 µg/mL
same,MIC,[15],> 10 µg/mL
same,MIC,[16],10 µg/mL
"COc1cc(C(Cc2ccc(O)cc2)=NO)ccc1O [Compound 12, 1-(3-methoxy-4-hydroxyphenyl)-1-hydroxyimino-2-(4’-hydroxyphenyl)-ethane]",IC50,[2],2.5 µg/mL
same,Toxicity (%) (dead cyprids),[2],3.5%
same,MIC,[4],10 µg/mL
same,MIC,[5],> 10 µg/mL
same,MIC,[6],> 10 µg/mL
same,MIC,[7],10 µg/mL
same,MIC,[8],0.1 µg/mL
same,MIC,[9],> 10 µg/mL
same,MIC,[10],> 10 µg/mL
same,MIC,[11],> 10 µg/mL
same,MIC,[12],> 10 µg/mL
same,MIC,[13],> 10 µg/mL
same,MIC,[14],1 µg/mL
same,MIC,[15],10 µg/mL
same,MIC,[16],0.1 µg/mL
same,MIC / activity against the growth of all bacteria tested,[17],active against four strains
"N[C@@H](Cc1ccc(O)cc1)C(=O)NCCc1ccc(O)cc1 [Compound 5, L-Tyrosinyltyramine]",activity against larvae settlement,[18],inactive
"COc1ccc(C(Cc2ccccc2)=NO)cc1OC [Compound 7, 1-(3,4-dimethoxyphenyl)-1-hydroxyimino-2-phenylethane]",IC50,[2],2.5 µg/mL
same,Toxicity (%) (dead cyprids),[2],5.8%
same,MIC,[19],0.01 µg/mL
same,MIC,[20],1 µg/mL
same,MIC / activity against the attachment and growth of microalgae,[21],inhibited both the settlement and growth of all of the tested species
same,MIC,[4],0.1 µg/mL
same,MIC,[5],1 µg/mL
same,MIC,[6],10 µg/mL
same,MIC,[7],0.01 µg/mL
same,MIC,[8],> 10 µg/mL
same,MIC,[9],10 µg/mL
same,MIC,[10],1 µg/mL
same,MIC,[11],10 µg/mL
same,MIC,[12],> 10 µg/mL
same,MIC,[13],> 10 µg/mL
same,MIC,[14],> 10 µg/mL
same,MIC,[15],> 10 µg/mL
same,MIC,[16],> 10 µg/mL
same,MIC / activity against the growth of all bacteria tested,[17],modest activity
